Results reported in PubChem BioAssay AID248 (DTP/NCI, 2004).
Several values for one entry are separate records, joined by “and”; a condition that tells them apart may be missing. Equal entries are not always repeated. Toxic doses and inconclusive results are not listed. Rule as the data show it: active = T/C of 150% or more; inactive = T/C below 125%.

Tested on: L1210 leukemia ip in BDF1 mice, survival T/C
Experiment: NCI In Vivo Anticancer Drug Screen. Data for tumor model L1210 Leukemia (intraperitoneal) in B6D2F1 (BDF1) mice
Details: endpoint: mean survival time, higher = longer survival
In short: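 Value reflects the ratio of survival in compound-treated mice to survival in vehicle-treated controls, with both groups carrying the same transplanted tumor.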

[1] = dose: 100.0 mg/kg/injection, schedule: Q01DX009 (ip), vehicle: Klucel (hydroxypropylcellulose) (HPC)
[2] = dose: 200.0 mg/kg/injection, schedule: Q01DX009 (ip), vehicle: Klucel (hydroxypropylcellulose) (HPC)
[3] = dose: 400.0 mg/kg/injection, schedule: Q01DX009 (ip), vehicle: Klucel (hydroxypropylcellulose) (HPC)
[4] = dose: 100.0 mg/kg/injection, schedule: Q01DX001 (ip), vehicle: saline
[5] = dose: 200.0 mg/kg/injection, schedule: Q01DX001 (ip), vehicle: saline
[6] = dose: 400.0 mg/kg/injection, schedule: Q01DX001 (ip), vehicle: saline
[7] = dose: 50.0 mg/kg/injection, schedule: Q01DX009 (ip), vehicle: saline with Tween-80
[8] = dose: 100.0 mg/kg/injection, schedule: Q01DX009 (ip), vehicle: saline with Tween-80
[9] = dose: 200.0 mg/kg/injection, schedule: Q01DX009 (ip), vehicle: saline with Tween-80
[10] = dose: 100.0 mg/kg/injection, schedule: Q04DX003 (ip), vehicle: saline with Tween-80
[11] = dose: 150.0 mg/kg/injection, schedule: Q04DX003 (ip), vehicle: saline with Tween-80
[12] = dose: 200.0 mg/kg/injection, schedule: Q04DX003 (ip), vehicle: saline with Tween-80
[13] = dose: 400.0 mg/kg/injection, schedule: Q01DX009 (ip), vehicle: saline with Tween-80
[14] = dose: 100.0 mg/kg/injection, schedule: Q01DX001 (ip), vehicle: Klucel (hydroxypropylcellulose) (HPC)
[15] = dose: 100.0 mg/kg/injection, schedule: Q04DX002 (ip), vehicle: Klucel (hydroxypropylcellulose) (HPC)
[16] = dose: 200.0 mg/kg/injection, schedule: Q01DX001 (ip), vehicle: Klucel (hydroxypropylcellulose) (HPC)
[17] = dose: 200.0 mg/kg/injection, schedule: Q04DX002 (ip), vehicle: Klucel (hydroxypropylcellulose) (HPC)
[18] = dose: 400.0 mg/kg/injection, schedule: Q01DX001 (ip), vehicle: Klucel (hydroxypropylcellulose) (HPC)
[19] = dose: 400.0 mg/kg/injection, schedule: Q04DX002 (ip), vehicle: Klucel (hydroxypropylcellulose) (HPC)
[20] = dose: 100.0 mg/kg/injection, schedule: Q01DX009 (ip), vehicle: saline
[21] = dose: 200.0 mg/kg/injection, schedule: Q01DX009 (ip), vehicle: saline

Measured: T/C

Cc1ccc(C(C)C)c(OC(=O)NCCCCCCNC(=O)Oc2cc(C)ccc2C(C)C)c1
inactive: [1] 93 % of control | [2] 94 % of control | [3] 98 % of control

COc1ccc(C=NC2C(OC(C)=O)OC(COC(C)=O)C(OC(C)=O)C2OC(C)=O)cc1 (stereo not given)
inactive: [4] 98 % of control | [5] 98 % of control | [6] 98 % of control

CC(C#N)(Cc1ccccc1)Nc1ccccc1 (stereo not given)
inactive: [7] 102 % of control | [8] 101 % of control | [9] 96 % of control

CCC(=O)OC1CCC2(C)C(=CCC3C2CCC2(C)C(C(C)CCCC(C)C)CCC32)C1 (stereo not given)
inactive: dose: 100.0 mg/kg/injection, schedule: Q01DX001 (ip), vehicle: other 91 % of control | dose: 200.0 mg/kg/injection, schedule: Q01DX001 (ip), vehicle: other 91 % of control

O=C(CC1C=CCC1)NCc1ccccc1 (stereo not given)
inactive: dose: 75.0 mg/kg/injection, schedule: Q01DX001 (ip), vehicle: saline 101 % of control | dose: 150.0 mg/kg/injection, schedule: Q01DX001 (ip), vehicle: saline 95 % of control | dose: 300.0 mg/kg/injection, schedule: Q01DX001 (ip), vehicle: saline 93 % of control

CC(O)(Cc1ccccc1)c1ccccc1 (stereo not given)
inactive: dose: 44.0 mg/kg/injection, schedule: Q04DX003 (ip), vehicle: saline with Tween-80 94 % of control | dose: 66.0 mg/kg/injection, schedule: Q04DX003 (ip), vehicle: saline with Tween-80 94 % of control | [8] 102 % of control | [10] 94 % of control | [11] 96 % of control | [9] 98 % of control | [12] 107 % of control | [13] 102 % of control | dose: 400.0 mg/kg/injection, schedule: Q04DX003 (ip), vehicle: saline with Tween-80 104 % of control

CC(=O)OC1CC2CCC1C2Br (stereo not given)
inactive: dose: 100.0 mg/kg/injection, schedule: Q01DX001 (ip), vehicle: carboxymethylcellulose (CMC) 95 % of control | dose: 200.0 mg/kg/injection, schedule: Q01DX001 (ip), vehicle: carboxymethylcellulose (CMC) 93 % of control | dose: 400.0 mg/kg/injection, schedule: Q01DX001 (ip), vehicle: carboxymethylcellulose (CMC) 90 % of control

O=C1CCC(CC2CCCCC2)CC1
inactive: [10] 100 % of control | [12] 95 % of control

O=C(Nc1ccccc1F)OCc1ccco1
inactive: [14] 99 % of control | [1] 95 % of control and 102 % of control | [15] 102 % of control and 106 % of control | [16] 99 % of control | [2] 95 % of control and 91 % of control | [17] 106 % of control and 118 % of control | [18] 94 % of control | [3] 98 % of control and 102 % of control | [19] 96 % of control and 104 % of control

CC(=O)NC(C)(C)C#N
inactive: [15] 93 % of control | [17] 96 % of control | [19] 107 % of control

C[C@@H]1C[C@@]2(C)[C@@H](CC[C@@H]3[C@@H]2CC[C@]2(C)OC(=O)CC[C@@H]32)CC1=O
inactive: dose: 50.0 mg/kg/injection, schedule: Q01DX009 (ip), vehicle: Klucel (hydroxypropylcellulose) (HPC) 95 % of control | [1] 97 % of control | dose: 100.0 mg/kg/injection, schedule: Q04DX003 (ip), vehicle: other 98 % of control | [2] 100 % of control | dose: 200.0 mg/kg/injection, schedule: Q04DX003 (ip), vehicle: other 101 % of control

C/C(=N\O)c1ccc(OCC(O)CN2CCN(c3ccccc3)CC2)cc1 (stereo not given)
inactive: dose: 37.5 mg/kg/injection, schedule: Q04DX003 (ip), vehicle: saline with Tween-80 101 % of control | [7] 103 % of control | dose: 75.0 mg/kg/injection, schedule: Q04DX003 (ip), vehicle: saline with Tween-80 93 % of control | [8] 108 % of control | [11] 101 % of control | [9] 115 % of control

CC(=O)OCC(O)C(O)C(O)C(O)C=O (stereo not given) (tested in a mixture with another compound)
inactive: [15] 92 % of control | [17] 103 % of control | [19] 95 % of control

CCCCOC(=O)C(C)OC(=O)Nc1cccc(Cl)c1 (stereo not given)
inactive: [8] 93 % of control | [9] 95 % of control | [13] 90 % of control

c1ccc(SCN(CSc2ccccc2)c2ccccc2)cc1
inactive: [1] 106 % of control | [2] 101 % of control

Sc1ccccc1-n1c(-c2ccccc2)ccc1-c1ccccc1
inactive: dose: 50.0 mg/kg/injection, schedule: Q01DX001 (ip), vehicle: saline 96 % of control | [4] 93 % of control | [5] 98 % of control | [6] 87 % of control

CNS(=O)(=O)c1ccccc1C(=N)c1ccccc1
inactive: [4] 97 % of control | [5] 97 % of control | [6] 100 % of control

COC(=O)CC(N)C(=O)OC (stereo not given)
inactive: [4] 89 % of control | [5] 86 % of control | [6] 90 % of control

NCCOP(=O)(O)O
inactive: dose: 50.0 mg/kg/injection, schedule: Q01DX009 (ip), vehicle: saline 95 % of control | [20] 98 % of control | [21] 106 % of control

O=S(=O)(C(Br)Br)C(Br)c1ccccc1 (stereo not given)
inactive: [4] 93 % of control | [5] 101 % of control | [6] 87 % of control

N=C(Oc1c(Cl)c(Cl)c(Cl)c(Cl)c1Cl)Oc1c(Cl)c(Cl)c(Cl)c(Cl)c1Cl
inactive: [1] 100 % of control | [2] 111 % of control | [3] 102 % of control

O/N=C(/C(=N/O)c1ccccc1)c1ccccc1.O/N=C(/C(=N/O)c1ccccc1)c1ccccc1.[Pd]
inactive: dose: 50.0 mg/kg/injection, schedule: Q04DX002 (ip), vehicle: Klucel (hydroxypropylcellulose) (HPC) 106 % of control | [15] 95 % of control | [17] 103 % of control

N#CCSc1nc(N)nc2nc[nH]c12
inactive: dose: 62.5 mg/kg/injection, schedule: Q01DX Z (ip), vehicle: methylcellulose (MC) 101 % of control | dose: 125.0 mg/kg/injection, schedule: Q01DX Z (ip), vehicle: methylcellulose (MC) 105 % of control

O=C1OC(=O)c2c(Br)c(Br)c(Br)c(Br)c21
inactive: [20] 103 % of control | [21] 97 % of control | dose: 400.0 mg/kg/injection, schedule: Q01DX009 (ip), vehicle: saline 107 % of control

CC(C)(Br)C(=O)C(Br)Br
inactive: [4] 106 % of control | [5] 102 % of control

CCCS(=O)(=O)C(S(C)(=O)=O)S(=O)(=O)CC (stereo not given)
inactive: [14] 94 % of control | [16] 98 % of control | [18] 91 % of control

C=CCSc1cccc(Cl)c1
inactive: [4] 101 % of control | [5] 96 % of control

OC(CN1CCCC1)c1cc2cc(Br)ccc2s1 (stereo not given)
inactive: [4] 107 % of control

Cc1ccc2ccccc2c1NS(=O)(=O)c1ccccc1
inactive: dose: 100.0 mg/kg/injection, schedule: Q01DX001 (ip), vehicle: saline sonified 95 % of control | [8] 90 % of control | dose: 200.0 mg/kg/injection, schedule: Q01DX001 (ip), vehicle: saline sonified 95 % of control | [9] 90 % of control | dose: 400.0 mg/kg/injection, schedule: Q01DX001 (ip), vehicle: saline sonified 97 % of control | [13] 88 % of control
